One data set has as its target T1, PH0952ΔN (Pyrococcus horikoshii, UniProt O58663).
T1 construct: gene PH0952; NBD 102-262, HD 263-316, WHD 317-393, arm 394-496, TPR sensor 497-748; from E. coli Rosetta (DE3), intein tag cleaved; monomeric resting form
Kind of data set: X-ray crystal structure. The settings on record: 3.4 Å; ADP present in purification buffer; nucleotide-binding site of the NOD.

Data set [1] concerns the target T2, MalT (Escherichia coli, UniProt P06993, M96C).
T2 construct: full-length, His6-tagged (pOM206, pET24a(+) derivative), purified from E. coli BL21 ΔmalT
The experiment in a line: analytical size-exclusion chromatography (multimerization). The following applies: reducing conditions. Type of data set: biochemical. (In general: SEC sorts molecules by how far they enter the pores of the column.)

In data set [2] the target is T3, MalT (Escherichia coli, UniProt P06993, R171E).
T3 construct: full-length, His6-tagged (pOM206, pET24a(+) derivative), purified from E. coli BL21 ΔmalT
T3 sequence (P06993 whole entry R171E): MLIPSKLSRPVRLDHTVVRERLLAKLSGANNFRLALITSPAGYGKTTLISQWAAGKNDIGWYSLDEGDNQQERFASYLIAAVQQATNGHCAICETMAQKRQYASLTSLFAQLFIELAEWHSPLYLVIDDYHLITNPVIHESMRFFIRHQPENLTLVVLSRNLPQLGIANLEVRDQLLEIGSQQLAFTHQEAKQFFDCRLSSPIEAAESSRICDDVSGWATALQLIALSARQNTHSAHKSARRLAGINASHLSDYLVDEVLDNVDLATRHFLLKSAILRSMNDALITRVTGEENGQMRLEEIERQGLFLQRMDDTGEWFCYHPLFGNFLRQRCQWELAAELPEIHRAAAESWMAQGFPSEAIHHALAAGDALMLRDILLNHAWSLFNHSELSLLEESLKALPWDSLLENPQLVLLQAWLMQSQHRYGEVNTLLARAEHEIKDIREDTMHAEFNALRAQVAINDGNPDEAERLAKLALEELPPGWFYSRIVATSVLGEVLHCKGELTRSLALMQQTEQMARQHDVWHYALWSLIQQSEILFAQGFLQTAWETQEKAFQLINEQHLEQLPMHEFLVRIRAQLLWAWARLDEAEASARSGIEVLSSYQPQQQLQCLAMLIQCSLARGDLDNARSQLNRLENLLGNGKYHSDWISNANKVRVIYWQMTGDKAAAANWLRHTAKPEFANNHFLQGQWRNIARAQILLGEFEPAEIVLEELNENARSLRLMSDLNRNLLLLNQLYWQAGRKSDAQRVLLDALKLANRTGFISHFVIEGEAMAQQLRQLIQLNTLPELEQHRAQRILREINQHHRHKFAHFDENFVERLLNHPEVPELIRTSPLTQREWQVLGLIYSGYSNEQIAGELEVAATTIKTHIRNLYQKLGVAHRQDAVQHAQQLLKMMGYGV
The experiment in a line: limited proteolysis (proteinase K). The class given is biochemical. The settings on record: 22 mM maltotriose; 0.44 mM ATP or ADP; pH 8.0, 25 °C.

For data set [3], the target named is T4, MalT (Escherichia coli, UniProt P06993, M96T/R171E).
T4 construct: full-length, His6-tagged (pOM206, pET24a(+) derivative), purified from E. coli BL21 ΔmalT
T4 sequence (P06993 whole entry M96T/R171E): as the sequence (P06993 whole entry R171E) above, with M96T counted along it
The experiment in a line: limited proteolysis (proteinase K). Type of data set: biochemical. The settings on record: 22 mM maltotriose; 0.44 mM ATP or ADP; pH 8.0, 25 °C.

The target of data set [4] is T5, MalT (Escherichia coli, UniProt P06993, H562C).
T5 construct: full-length, His6-tagged (pOM206, pET24a(+) derivative), purified from E. coli BL21 ΔmalT
Kind of data set: analytical size-exclusion chromatography (multimerization). Type of data set: biochemical. The settings on record: reducing conditions.

Data set [5] deals with T6, MalT (Escherichia coli, UniProt P06993).
T6 construct: full-length, His6-tagged (pOM206, pET24a(+) derivative), purified from E. coli BL21 ΔmalT
The experiment in a line: analytical size-exclusion chromatography (multimerization) and limited proteolysis. Type of data set: biochemical. The following applies: with ATP; inducer; pH 8.0.

Data set [6] deals with the molecule itself. Kind of data set: SEC; analytical Superdex 200 PC3.2/30, room temperature; reducing conditions; with the inducer maltotriose (Supplementary Figure S9).
Data set [7] concerns the molecule itself. Kind of data set: SEC; analytical Superdex 200, room temperature; Tris-HCl 50 mM pH 8.0, 10% sucrose, 0.033 M K3 citrate, 10 mM Mg acetate, 0.1 mM EDTA, 1 mM DTT, 0.1 mM ADP; no maltotriose; high protein concentration (54 μM).

From publication PMC6468293, “Double autoinhibition mechanism of signal transduction ATPases with numerous domains (STAND) with a tetratricopeptide repeat sensor” (Nucleic Acids Research, 2019) come the findings set out here.

T1 sequence (O58663 entry or part of it, stated change not applied): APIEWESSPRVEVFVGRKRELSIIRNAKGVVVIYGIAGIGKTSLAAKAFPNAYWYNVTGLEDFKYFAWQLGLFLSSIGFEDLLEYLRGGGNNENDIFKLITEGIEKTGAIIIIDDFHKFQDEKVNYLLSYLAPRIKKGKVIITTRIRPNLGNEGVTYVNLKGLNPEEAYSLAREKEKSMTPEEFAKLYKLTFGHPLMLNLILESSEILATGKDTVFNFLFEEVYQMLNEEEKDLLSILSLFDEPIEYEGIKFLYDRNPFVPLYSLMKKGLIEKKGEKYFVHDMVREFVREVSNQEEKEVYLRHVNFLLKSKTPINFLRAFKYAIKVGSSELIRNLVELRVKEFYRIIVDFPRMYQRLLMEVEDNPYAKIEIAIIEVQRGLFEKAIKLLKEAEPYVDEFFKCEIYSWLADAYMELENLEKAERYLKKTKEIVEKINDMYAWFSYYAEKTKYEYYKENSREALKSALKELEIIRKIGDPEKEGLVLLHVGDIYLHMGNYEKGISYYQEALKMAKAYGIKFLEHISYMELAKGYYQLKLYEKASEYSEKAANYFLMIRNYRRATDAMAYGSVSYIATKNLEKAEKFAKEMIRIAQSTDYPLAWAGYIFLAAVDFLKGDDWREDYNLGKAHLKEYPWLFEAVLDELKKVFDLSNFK

With `Nc1ncnc2c1ncn2[C@@H]1O[C@H](COP(=O)(O)OP(=O)(O)O)[C@@H](O)[C@H]1O` [ADP], the X-ray crystal structure entry on PH0952ΔN was “a ligand was clearly visible in the experimental electron density map”.
In the case of `OC[C@H]1O[C@H](O[C@H]2[C@H](O)[C@@H](O)[C@@H](O[C@H]3[C@H](O)[C@@H](O)C(O)O[C@@H]3CO)O[C@@H]2CO)[C@H](O)[C@@H](O)[C@@H]1O` (some centres unmarked) [maltotriose], the “analytical size-exclusion chromatography (multimerization)” value at MalT [1] is listed as “the four proteins were monomeric in the absence of the inducer, maltotriose”; at MalT [4], “the four proteins were monomeric in the absence of the inducer, maltotriose”. Also, the “limited proteolysis (proteinase K)” value at MalT [2] and at MalT [3] was “underwent the same maltotriose-induced conformational changes as MalT” throughout. Besides, the “analytical size-exclusion chromatography (multimerization) and limited proteolys” value at MalT [5] was “responded to its presence by multimerizing to the same extent”.

B1: His6-tagged MalT (Escherichia coli maltose system regulator), wild type (natural protein, E. coli, UniProt P06993 1-901, looked up)
chain: MLIPSKLSRPVRLDHTVVRERLLAKLSGANNFRLALITSPAGYGKTTLISQWAAGKNDIGWYSLDEGDNQQERFASYLIAAVQQATNGHCAICETMAQKRQYASLTSLFAQLFIELAEWHSPLYLVIDDYHLITNPVIHESMRFFIRHQPENLTLVVLSRNLPQLGIANLRVRDQLLEIGSQQLAFTHQEAKQFFDCRLSSPIEAAESSRICDDVSGWATALQLIALSARQNTHSAHKSARRLAGINASHLSDYLVDEVLDNVDLATRHFLLKSAILRSMNDALITRVTGEENGQMRLEEIERQGLFLQRMDDTGEWFCYHPLFGNFLRQRCQWELAAELPEIHRAAAESWMAQGFPSEAIHHALAAGDALMLRDILLNHAWSLFNHSELSLLEESLKALPWDSLLENPQLVLLQAWLMQSQHRYGEVNTLLARAEHEIKDIREDTMHAEFNALRAQVAINDGNPDEAERLAKLALEELPPGWFYSRIVATSVLGEVLHCKGELTRSLALMQQTEQMARQHDVWHYALWSLIQQSEILFAQGFLQTAWETQEKAFQLINEQHLEQLPMHEFLVRIRAQLLWAWARLDEAEASARSGIEVLSSYQPQQQLQCLAMLIQCSLARGDLDNARSQLNRLENLLGNGKYHSDWISNANKVRVIYWQMTGDKAAAANWLRHTAKPEFANNHFLQGQWRNIARAQILLGEFEPAEIVLEELNENARSLRLMSDLNRNLLLLNQLYWQAGRKSDAQRVLLDALKLANRTGFISHFVIEGEAMAQQLRQLIQLNTLPELEQHRAQRILREINQHHRHKFAHFDENFVERLLNHPEVPELIRTSPLTQREWQVLGLIYSGYSNEQIAGELEVAATTIKTHIRNLYQKLGVAHRQDAVQHAQQLLKMMGYGV
notes: MalT, E. coli, His-tagged version encoded by pOM206 (pET24a(+) derivative); Purified in two buffers (with ATP/KCl; or K3 citrate without nucleotide) to serve as control for the variants; Details of the plasmid are in the Supplementary Materials and Methods; also called wt MalT; wild-type MalT; source: E. coli pop8012 (a BL21 ΔmalT strain) with pOM206, purified (nickel-agarose chromatography, …)
As for B1, the binding result in data set [6] is “binds”.

B2: His6-tagged MalT^M96C (natural protein, E. coli, UniProt P06993 1-901, looked up)
chain: MLIPSKLSRPVRLDHTVVRERLLAKLSGANNFRLALITSPAGYGKTTLISQWAAGKNDIGWYSLDEGDNQQERFASYLIAAVQQATNGHCAICETCAQKRQYASLTSLFAQLFIELAEWHSPLYLVIDDYHLITNPVIHESMRFFIRHQPENLTLVVLSRNLPQLGIANLRVRDQLLEIGSQQLAFTHQEAKQFFDCRLSSPIEAAESSRICDDVSGWATALQLIALSARQNTHSAHKSARRLAGINASHLSDYLVDEVLDNVDLATRHFLLKSAILRSMNDALITRVTGEENGQMRLEEIERQGLFLQRMDDTGEWFCYHPLFGNFLRQRCQWELAAELPEIHRAAAESWMAQGFPSEAIHHALAAGDALMLRDILLNHAWSLFNHSELSLLEESLKALPWDSLLENPQLVLLQAWLMQSQHRYGEVNTLLARAEHEIKDIREDTMHAEFNALRAQVAINDGNPDEAERLAKLALEELPPGWFYSRIVATSVLGEVLHCKGELTRSLALMQQTEQMARQHDVWHYALWSLIQQSEILFAQGFLQTAWETQEKAFQLINEQHLEQLPMHEFLVRIRAQLLWAWARLDEAEASARSGIEVLSSYQPQQQLQCLAMLIQCSLARGDLDNARSQLNRLENLLGNGKYHSDWISNANKVRVIYWQMTGDKAAAANWLRHTAKPEFANNHFLQGQWRNIARAQILLGEFEPAEIVLEELNENARSLRLMSDLNRNLLLLNQLYWQAGRKSDAQRVLLDALKLANRTGFISHFVIEGEAMAQQLRQLIQLNTLPELEQHRAQRILREINQHHRHKFAHFDENFVERLLNHPEVPELIRTSPLTQREWQVLGLIYSGYSNEQIAGELEVAATTIKTHIRNLYQKLGVAHRQDAVQHAQQLLKMMGYGV
notes: MalT, E. coli, His-tagged, pOM206 derivative; source: E. coli pop8012 (a BL21 ΔmalT strain) with a pOM206 derivative, purified (nickel-agarose chromatography, Superdex 200)
Consider B2, for which the binding result in data set [6] is on record as “binds”.

B3: His6-tagged MalT^H562C (natural protein, E. coli, UniProt P06993 1-901, looked up)
chain: MLIPSKLSRPVRLDHTVVRERLLAKLSGANNFRLALITSPAGYGKTTLISQWAAGKNDIGWYSLDEGDNQQERFASYLIAAVQQATNGHCAICETMAQKRQYASLTSLFAQLFIELAEWHSPLYLVIDDYHLITNPVIHESMRFFIRHQPENLTLVVLSRNLPQLGIANLRVRDQLLEIGSQQLAFTHQEAKQFFDCRLSSPIEAAESSRICDDVSGWATALQLIALSARQNTHSAHKSARRLAGINASHLSDYLVDEVLDNVDLATRHFLLKSAILRSMNDALITRVTGEENGQMRLEEIERQGLFLQRMDDTGEWFCYHPLFGNFLRQRCQWELAAELPEIHRAAAESWMAQGFPSEAIHHALAAGDALMLRDILLNHAWSLFNHSELSLLEESLKALPWDSLLENPQLVLLQAWLMQSQHRYGEVNTLLARAEHEIKDIREDTMHAEFNALRAQVAINDGNPDEAERLAKLALEELPPGWFYSRIVATSVLGEVLHCKGELTRSLALMQQTEQMARQHDVWHYALWSLIQQSEILFAQGFLQTAWETQEKAFQLINEQCLEQLPMHEFLVRIRAQLLWAWARLDEAEASARSGIEVLSSYQPQQQLQCLAMLIQCSLARGDLDNARSQLNRLENLLGNGKYHSDWISNANKVRVIYWQMTGDKAAAANWLRHTAKPEFANNHFLQGQWRNIARAQILLGEFEPAEIVLEELNENARSLRLMSDLNRNLLLLNQLYWQAGRKSDAQRVLLDALKLANRTGFISHFVIEGEAMAQQLRQLIQLNTLPELEQHRAQRILREINQHHRHKFAHFDENFVERLLNHPEVPELIRTSPLTQREWQVLGLIYSGYSNEQIAGELEVAATTIKTHIRNLYQKLGVAHRQDAVQHAQQLLKMMGYGV
notes: as for B2
As for B3, the binding result in data set [6] was “binds”.

B4: His6-tagged MalT^M96C,H562C (natural protein, E. coli, UniProt P06993 1-901, looked up)
chain: MLIPSKLSRPVRLDHTVVRERLLAKLSGANNFRLALITSPAGYGKTTLISQWAAGKNDIGWYSLDEGDNQQERFASYLIAAVQQATNGHCAICETCAQKRQYASLTSLFAQLFIELAEWHSPLYLVIDDYHLITNPVIHESMRFFIRHQPENLTLVVLSRNLPQLGIANLRVRDQLLEIGSQQLAFTHQEAKQFFDCRLSSPIEAAESSRICDDVSGWATALQLIALSARQNTHSAHKSARRLAGINASHLSDYLVDEVLDNVDLATRHFLLKSAILRSMNDALITRVTGEENGQMRLEEIERQGLFLQRMDDTGEWFCYHPLFGNFLRQRCQWELAAELPEIHRAAAESWMAQGFPSEAIHHALAAGDALMLRDILLNHAWSLFNHSELSLLEESLKALPWDSLLENPQLVLLQAWLMQSQHRYGEVNTLLARAEHEIKDIREDTMHAEFNALRAQVAINDGNPDEAERLAKLALEELPPGWFYSRIVATSVLGEVLHCKGELTRSLALMQQTEQMARQHDVWHYALWSLIQQSEILFAQGFLQTAWETQEKAFQLINEQCLEQLPMHEFLVRIRAQLLWAWARLDEAEASARSGIEVLSSYQPQQQLQCLAMLIQCSLARGDLDNARSQLNRLENLLGNGKYHSDWISNANKVRVIYWQMTGDKAAAANWLRHTAKPEFANNHFLQGQWRNIARAQILLGEFEPAEIVLEELNENARSLRLMSDLNRNLLLLNQLYWQAGRKSDAQRVLLDALKLANRTGFISHFVIEGEAMAQQLRQLIQLNTLPELEQHRAQRILREINQHHRHKFAHFDENFVERLLNHPEVPELIRTSPLTQREWQVLGLIYSGYSNEQIAGELEVAATTIKTHIRNLYQKLGVAHRQDAVQHAQQLLKMMGYGV
notes: as for B2
As to B4, the binding result in data set [6] is given as “binds”.

B5: His6-tagged MalT^M96T (natural protein, E. coli, UniProt P06993 1-901, looked up)
chain: MLIPSKLSRPVRLDHTVVRERLLAKLSGANNFRLALITSPAGYGKTTLISQWAAGKNDIGWYSLDEGDNQQERFASYLIAAVQQATNGHCAICETTAQKRQYASLTSLFAQLFIELAEWHSPLYLVIDDYHLITNPVIHESMRFFIRHQPENLTLVVLSRNLPQLGIANLRVRDQLLEIGSQQLAFTHQEAKQFFDCRLSSPIEAAESSRICDDVSGWATALQLIALSARQNTHSAHKSARRLAGINASHLSDYLVDEVLDNVDLATRHFLLKSAILRSMNDALITRVTGEENGQMRLEEIERQGLFLQRMDDTGEWFCYHPLFGNFLRQRCQWELAAELPEIHRAAAESWMAQGFPSEAIHHALAAGDALMLRDILLNHAWSLFNHSELSLLEESLKALPWDSLLENPQLVLLQAWLMQSQHRYGEVNTLLARAEHEIKDIREDTMHAEFNALRAQVAINDGNPDEAERLAKLALEELPPGWFYSRIVATSVLGEVLHCKGELTRSLALMQQTEQMARQHDVWHYALWSLIQQSEILFAQGFLQTAWETQEKAFQLINEQHLEQLPMHEFLVRIRAQLLWAWARLDEAEASARSGIEVLSSYQPQQQLQCLAMLIQCSLARGDLDNARSQLNRLENLLGNGKYHSDWISNANKVRVIYWQMTGDKAAAANWLRHTAKPEFANNHFLQGQWRNIARAQILLGEFEPAEIVLEELNENARSLRLMSDLNRNLLLLNQLYWQAGRKSDAQRVLLDALKLANRTGFISHFVIEGEAMAQQLRQLIQLNTLPELEQHRAQRILREINQHHRHKFAHFDENFVERLLNHPEVPELIRTSPLTQREWQVLGLIYSGYSNEQIAGELEVAATTIKTHIRNLYQKLGVAHRQDAVQHAQQLLKMMGYGV
notes: MalT, E. coli, His-tagged, pOM206 derivative; About 20% aggregated after purification without nucleotide; concentration was corrected for this; also called M96T variant
With B5, in data set [7], the binding result is on record as “binds”.
